The source made the active and inactive calls.

The target in one experiment is Estrogen receptor beta (Homo sapiens, UniProt Q92731). Kind of experiment: ERβ–SRC-3 coactivator interaction inhibitors, confirmation, orthogonal assay, biochemical, ELISA, streptavidin-HRP readout (AID 1060). (In an ELISA, binding on a coated surface is turned into a signal by an enzyme label.)
Experiment [1] concerns the target T1, DNA dC->dU-editing enzyme APOBEC-3A (Homo sapiens, UniProt P31941). In words: Dose Response confirmation of small molecule APOBEC3A DNA Deaminase Inhibitors via a fluorescence-based single-stranded DNA deaminase assay. [Related pubchem assays (depositor defined):AID493011, AID493024]. It is filed as functional.
Experiment [2] has as its target T2, DNA dC->dU-editing enzyme APOBEC-3G (Homo sapiens, UniProt Q9HC16). In kind it is functional.
The target in experiment [3] is T1, DNA dC->dU-editing enzyme APOBEC-3A. In words: SAR analysis of small molecule inhibitors of APOBEC3A DNA Deaminase via a fluorescence-based single-stranded DNA deaminase assay - Set 2. The settings on record: read-out: IC50_Mean. In kind it is functional.
Experiment [4] deals with T2, DNA dC->dU-editing enzyme APOBEC-3G. Kind of experiment: SAR analysis of small molecule inhibitors of APOBEC3G DNA Deaminase via a fluorescence-based single-stranded DNA deaminase assay - Set 2. Particulars: read-out: IC50_Mean. It is filed as functional.
For experiment [5] the target is unchanged. Kind of experiment: APOBEC3G deaminase inhibitors, SAR follow-up, biochemical, fluorescence, single-stranded DNA substrate (AID 602136). In kind it is functional. The settings on record: read-out: IC50_Mean.
Experiment [6] has as its target T1, DNA dC->dU-editing enzyme APOBEC-3A. Kind of experiment: SAR analysis of small molecule inhibitors of APOBEC3A DNA Deaminase via a fluorescence-based single-stranded DNA deaminase assay. It is filed as functional. Particulars: read-out: IC50_Mean.
Experiment [7] concerns the target Low molecular weight phosphotyrosine protein phosphatase (Homo sapiens, UniProt P24666). It is filed as functional. The settings on record: read-out: IC50_Mean.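 Also: Dose-response confirmation assay measuring inhibition of LMPTP enzyme activity by fluorescence intensity read-out.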
Experiment [8] has as its target Melanin-concentrating hormone receptor 1 (Homo sapiens, UniProt Q99705). Kind of experiment: Late-stage fluorescence-based counterscreen for antagonists of the G-protein coupled receptor 7 (GPR7): cell-based dose response assay to identify antagonists of the melanin-concentrating hormone receptor 1 (MCHR1) Set 6. In kind it is functional. For orientation: Counterscreens check selectivity or assay interference.

The target in experiment [9] is T3, Neuropeptides B/W receptor type 1 (Homo sapiens, UniProt P48145).
T3 sequence (P48145 whole entry): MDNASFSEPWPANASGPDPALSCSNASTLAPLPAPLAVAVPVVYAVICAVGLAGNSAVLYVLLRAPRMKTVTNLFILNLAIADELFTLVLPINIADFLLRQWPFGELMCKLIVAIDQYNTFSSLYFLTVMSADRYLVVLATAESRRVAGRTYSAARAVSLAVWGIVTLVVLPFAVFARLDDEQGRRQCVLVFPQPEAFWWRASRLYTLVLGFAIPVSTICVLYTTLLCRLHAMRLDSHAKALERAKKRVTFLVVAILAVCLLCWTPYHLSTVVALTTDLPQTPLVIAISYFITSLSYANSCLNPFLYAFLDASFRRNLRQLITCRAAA
In words: GPR7 antagonist potency, late-stage follow-up, cell-based, fluorescence, dose response, set 6 (AID 588583). It is filed as functional.

T2 sequence (Q9HC16 whole entry): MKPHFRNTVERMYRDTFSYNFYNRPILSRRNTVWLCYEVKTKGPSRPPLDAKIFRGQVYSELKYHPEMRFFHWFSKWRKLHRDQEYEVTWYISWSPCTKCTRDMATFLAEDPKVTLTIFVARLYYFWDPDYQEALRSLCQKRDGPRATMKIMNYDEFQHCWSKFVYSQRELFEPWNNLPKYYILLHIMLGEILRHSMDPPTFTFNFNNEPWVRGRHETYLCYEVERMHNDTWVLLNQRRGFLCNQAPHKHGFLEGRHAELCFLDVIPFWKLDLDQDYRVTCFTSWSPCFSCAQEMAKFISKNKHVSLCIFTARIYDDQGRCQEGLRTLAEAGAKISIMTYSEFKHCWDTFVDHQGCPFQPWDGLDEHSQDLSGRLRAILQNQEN
T1 sequence (P31941 whole entry): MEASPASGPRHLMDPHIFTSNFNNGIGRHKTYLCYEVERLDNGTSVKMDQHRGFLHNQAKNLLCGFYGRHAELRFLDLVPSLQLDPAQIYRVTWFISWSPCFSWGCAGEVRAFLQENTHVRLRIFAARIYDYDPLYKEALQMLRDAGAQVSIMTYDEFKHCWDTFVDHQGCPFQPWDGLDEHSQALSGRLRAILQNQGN
Chain of Melanin-concentrating hormone receptor 1 (Q99705 whole entry): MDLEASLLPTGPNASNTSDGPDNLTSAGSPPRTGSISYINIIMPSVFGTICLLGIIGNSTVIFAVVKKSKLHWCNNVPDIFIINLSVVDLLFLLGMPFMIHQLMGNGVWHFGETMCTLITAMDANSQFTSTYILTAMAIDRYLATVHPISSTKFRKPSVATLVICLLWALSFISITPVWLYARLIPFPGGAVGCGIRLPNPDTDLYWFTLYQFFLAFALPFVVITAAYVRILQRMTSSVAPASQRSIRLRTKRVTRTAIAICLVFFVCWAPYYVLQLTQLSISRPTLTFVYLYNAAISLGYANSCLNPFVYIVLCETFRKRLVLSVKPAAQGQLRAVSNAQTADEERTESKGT
Chain of Low molecular weight phosphotyrosine protein phosphatase (P24666 whole entry): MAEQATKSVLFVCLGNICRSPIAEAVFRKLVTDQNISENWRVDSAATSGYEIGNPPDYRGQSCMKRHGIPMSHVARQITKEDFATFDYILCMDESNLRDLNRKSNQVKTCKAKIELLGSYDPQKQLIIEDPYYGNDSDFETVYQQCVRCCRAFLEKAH
Chain of Estrogen receptor beta (Q92731 whole entry): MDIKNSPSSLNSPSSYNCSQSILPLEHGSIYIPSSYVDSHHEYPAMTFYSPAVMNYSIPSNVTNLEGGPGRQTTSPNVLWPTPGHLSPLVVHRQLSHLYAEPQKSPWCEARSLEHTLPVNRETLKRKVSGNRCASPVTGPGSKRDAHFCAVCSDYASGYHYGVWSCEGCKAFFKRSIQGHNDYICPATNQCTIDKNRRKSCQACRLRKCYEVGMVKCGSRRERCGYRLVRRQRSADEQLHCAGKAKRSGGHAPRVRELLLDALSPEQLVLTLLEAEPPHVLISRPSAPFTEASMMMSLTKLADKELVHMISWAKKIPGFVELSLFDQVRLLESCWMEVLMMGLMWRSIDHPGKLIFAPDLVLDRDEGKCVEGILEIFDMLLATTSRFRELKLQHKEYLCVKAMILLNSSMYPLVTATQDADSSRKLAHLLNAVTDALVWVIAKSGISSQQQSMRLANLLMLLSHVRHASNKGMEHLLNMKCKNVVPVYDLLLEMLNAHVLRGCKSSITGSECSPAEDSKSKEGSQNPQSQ

`O=C(NCc1ccc2c(c1)OCO2)c1cc2ncc(Br)cn2n1`: the IC50 at Estrogen receptor beta was 0.363 µM (not active); in experiment [1], 9.82 µM (active); in experiment [2] it was 56.5 µM (active); in experiment [3], 21.1 µM (inactive); in experiment [4], 73.1 µM (inactive); in experiment [5], 35 µM (inactive). Moreover, the values for the IC50 in experiment [6] and in [7] were 20.3 µM (inactive) and 37.4 µM (inactive), respectively.
As for `N#CC(c1c(Cl)cnn(Cc2cccc3ccccc23)c1=O)c1coc2ccccc12` (stereo not given), the IC50 in [8] and in experiment [9] was 0.294 µM (active) each time.

The values are drawn from ChEMBL document CHEMBL1201862, “PubChem BioAssay data set” (2004).
